According to the supplement of paper PMC10307832:

How the values were obtained:
Assay in all cases: relative viability (nuclei count vs DMSO), 5 days (fraction); higher = more cells survive
Lapatinib + Linsitinib = compound: CS(=O)(=O)CCNCc1ccc(-c2ccc3ncnc(Nc4ccc(OCc5cccc(F)c5)c(Cl)c4)c3c2)o1 [Lapatinib] + C[C@]1(O)C[C@@H](c2nc(-c3ccc4ccc(-c5ccccc5)nc4c3)c3c(N)nccn32)C1 [Linsitinib] (partner 1 µM)
Summary of the method: (§1)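 For relative viability, nuclei counts in treated wells were divided by those in vehicle wells. Lung cancer cell lines had been pin-tool dosed in 1536-well plates the day after seeding and cultured for 5 days, then fixed and stained in one step (final 0.05% Triton X-100, 1% formaldehyde, 1 ug/ml Hoechst) and imaged at 4×. Doses were one drug alone or a fixed anchor-drug dose plus five library-drug doses (not always all listed) in √10 steps, and values are duplicate-plate medians.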

Wnt-C59 + Foretinib = compound: CC1=NC=CC(=C1)C2=CC=C(C=C2)CC(=O)NC3=CC=C(C=C3)C4=CN=CC=C4 [Wnt-C59] + COc1cc2c(Oc3ccc(NC(=O)C4(C(=O)Nc5ccc(F)cc5)CC4)cc3F)ccnc2cc1OCCCN1CCOCC1 [Foretinib] (partner 0.25 µM)
Summary of the method: as §1

Lapatinib + Decitabine = compound: CS(=O)(=O)CCNCc1ccc(-c2ccc3ncnc(Nc4ccc(OCc5cccc(F)c5)c(Cl)c4)c3c2)o1 [Lapatinib] + Nc1ncn([C@H]2C[C@H](O)[C@@H](CO)O2)c(=O)n1 [Decitabine] (partner 2 µM)
Summary of the method: as §1

Wnt-C59 + Navitoclax = compound: CC1=NC=CC(=C1)C2=CC=C(C=C2)CC(=O)NC3=CC=C(C=C3)C4=CN=CC=C4 [Wnt-C59] + CC1(C)CCC(c2ccc(Cl)cc2)=C(CN2CCN(c3ccc(C(=O)NS(=O)(=O)c4ccc(N[C@H](CCN5CCOCC5)CSc5ccccc5)c(S(=O)(=O)C(F)(F)F)c4)cc3)CC2)C1 [Navitoclax] (partner 0.5 µM)
Summary of the method: as §1

| Cell Line | relative viability (Lapatinib + Linsitinib; first compound 0.06325 µM) | relative viability (Lapatinib + Linsitinib; first compound 0.2 µM) | relative viability (Lapatinib + Linsitinib; first compound 0.6325 µM) | relative viability (Lapatinib + Linsitinib; first compound 2 µM) | relative viability (Wnt-C59 + Foretinib; first compound 0.001 µM) | relative viability (Wnt-C59 + Foretinib; first compound 0.01 µM) | relative viability (Wnt-C59 + Foretinib; first compound 0.03162 µM) | relative viability (Wnt-C59 + Foretinib; first compound 0.1 µM) | relative viability (Lapatinib + Decitabine; first compound 0.06325 µM) | relative viability (Lapatinib + Decitabine; first compound 0.2 µM) | relative viability (Lapatinib + Decitabine; first compound 0.6325 µM) | relative viability (Lapatinib + Decitabine; first compound 2 µM) | relative viability (Wnt-C59 + Navitoclax; first compound 0.001 µM) | relative viability (Wnt-C59 + Navitoclax; first compound 0.01 µM) | relative viability (Wnt-C59 + Navitoclax; first compound 0.03162 µM) | relative viability (Wnt-C59 + Navitoclax; first compound 0.1 µM) | relative viability (Lapatinib + Linsitinib; first compound 0.02 µM) | relative viability (Lapatinib + Decitabine; first compound 0.02 µM) |
| --- | --- | --- | --- | --- | --- | --- | --- | --- | --- | --- | --- | --- | --- | --- | --- | --- | --- | --- |
| HOP-62 | 0.923 | 0.91 | 0.857 | 1.01 | 1.1 | 1.06 | 1.07 | 1.19 | 0.224 | 0.21 | 0.203 | 0.219 | 1.05 | 1.04 | 0.98 | 0.903 | – | – |
| NCI-H2009 | 1.22 | 1.22 | 1.18 | 1.09 | 1.26 | 1.21 | 1.22 | 0.819 | 0.4 | 0.342 | 0.353 | 0.357 | 1.13 | 1.23 | 1.14 | 1.14 | 1.22 | 0.383 |
| NCI-H1915 | 1.09 | 1.08 | 1.02 | 1.1 | 1.12 | 1.03 | 1.16 | 1.09 | 0.284 | 0.248 | 0.253 | 0.255 | 0.822 | 0.8 | 0.77 | 0.8 | – | – |
| NCI-H3122 | 0.954 | 0.996 | 1.04 | 0.999 | 0.933 | 0.978 | 0.989 | 0.946 | 0.364 | 0.376 | 0.456 | 0.421 | 1.02 | 0.976 | 0.958 | 0.98 | 0.996 | 0.426 |
| NCI-H2085 | 0.89 | 0.811 | 0.813 | 0.62 | 0.987 | 0.958 | 0.88 | 0.918 | 0.528 | 0.512 | 0.521 | 0.477 | 1.28 | 1.15 | 1.23 | 1.05 | 0.919 | 0.579 |
| NCI-H1395 | 1.01 | 1.03 | 1.03 | 1.01 | 0.99 | 1.01 | 0.984 | 1 | 0.719 | 0.802 | 0.729 | 0.701 | 1.24 | 1.1 | 1.08 | 1.32 | – | – |
| EKVX | 0.757 | 0.956 | 0.579 | 0.179 | 0.763 | 0.725 | 0.833 | 0.714 | 0.326 | 0.333 | 0.304 | 0.138 | 0.991 | 0.87 | 0.896 | 0.788 | 0.922 | – |
| HCC-15 | 0.857 | 0.954 | 0.814 | 0.599 | 1.09 | 1.09 | 1.04 | 0.992 | 0.537 | 0.677 | 0.64 | 0.568 | 0.799 | 0.708 | 0.7 | 0.76 | – | – |
| LK-2 | 0.487 | 0.377 | 0.66 | 0.575 | 1.28 | 1.02 | 1.46 | 1.25 | – | 0.331 | 0.363 | 0.411 | 0.884 | 0.972 | 1.02 | 0.868 | 0.704 | 0.196 |
